This is an account of results in PubChem BioAssay (NCI).

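1) Cells in 96-well plates. 2) Compound, 48 h, 5 concentrations. 3) Linear interpolation between surrounding doses. 4) Unreached endpoint = highest concentration. Here, GI50 denotes the concentration required for 50% inhibition of growth. TGI: concentration producing complete growth inhibition.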

Among the test systems are M19-MEL melanoma; RXF-631 renal; DMS 114 small cell lung; DLD-1 colon; DMS 273 small cell lung; XF 498 CNS; HOP-18 NSCLC; KM20L2 colon; P388 leukemia; SN12K1 renal; MDA-N.
Common to all, as to assay: NCI tumour cell line growth inhibition, 48 h

As for `Oc1cc(O)c2c(-c3c(O)c(-c4ccc(O)c(O)c4)[o+]c4cc(O)cc(O)c34)c(O)c(-c3ccc(O)c(O)c3)[o+]c2c1`, the TGI in the experiment with M19-MEL melanoma is > 100 µM; in the experiment with RXF-631 renal, > 100 µM; in the experiment with DMS 114 small cell lung, 92.8 µM; in the experiment with DLD-1 colon, > 100 µM; with DMS 273 small cell lung, > 100 µM; in the experiment with XF 498 CNS it was 87.6 µM. The results for the TGI in the experiment on HOP-18 NSCLC and with KM20L2 colon were 36.4 µM and > 100 µM, respectively.
In the case of `COC(=O)C(=O)OC1(C(C)=O)CC2(c3ccccc3)OC1(c1ccccc1)c1ccccc12` (centres undefined), the TGI with M19-MEL melanoma is 31.1 µM; with RXF-631 renal, > 100 µM; with DMS 114 small cell lung, 32 µM; with DLD-1 colon, 36.4 µM; with DMS 273 small cell lung, 30 µM; in the experiment on XF 498 CNS, 30.5 µM. For the same compound, the TGI in the experiment with HOP-18 NSCLC stood at 84.5 µM; with KM20L2 colon, 30.7 µM.
Consider `Nc1ncnc2c1nc(Cl)n2C1OC2COP(=O)(O)OC2C1O` (centres undefined), for which the TGI was > 300 µM in the experiment with M19-MEL melanoma; > 300 µM in the experiment with P388 leukemia; > 300 µM in the experiment on DMS 114 small cell lung; > 194 µM with DLD-1 colon; > 222 µM in the experiment on DMS 273 small cell lung; > 300 µM with SN12K1 renal. Further, the TGI in the experiment with MDA-N, in the experiment on HOP-18 NSCLC and in the experiment with KM20L2 colon was > 300 µM throughout.
Take `CN(C)c1ccc([O][Bi]([Cl])[Cl])cc1`: the GI50 in the experiment on M19-MEL melanoma was > 100 µM; in the experiment on RXF-631 renal, 30.7 µM; in the experiment with DMS 114 small cell lung, 87.9 µM; in the experiment on DLD-1 colon it was > 100 µM; in the experiment with DMS 273 small cell lung, > 100 µM; in the experiment with XF 498 CNS, 80.6 µM. Also, the GI50 in the experiment on HOP-18 NSCLC and with KM20L2 colon was > 100 µM in each case. Further, the TGI with M19-MEL melanoma, in the experiment on RXF-631 renal, with DMS 114 small cell lung, in the experiment with DLD-1 colon, in the experiment with DMS 273 small cell lung and in the experiment with XF 498 CNS was > 100 µM each time. The TGI with HOP-18 NSCLC and in the experiment with KM20L2 colon was > 100 µM in each case.
With `CC1(CO)OC(n2cc(C(=O)NC(=O)OCc3ccccc3)c(=O)[nH]c2=O)CC1O` (centres undefined), the TGI in the experiment with M19-MEL melanoma, in the experiment with RXF-631 renal, in the experiment with DMS 114 small cell lung, in the experiment on DLD-1 colon, in the experiment on DMS 273 small cell lung and with XF 498 CNS was > 100 µM each time. In addition, the TGI in the experiment with HOP-18 NSCLC and in the experiment with KM20L2 colon was > 100 µM throughout.
Consider `CCOC(=O)N1CCc2cc(OC)c(OC)c3c2c1cc1cc(OC)c(OC)cc13`, for which the TGI is > 100 µM with M19-MEL melanoma; 66 µM with RXF-631 renal; 7.1 µM in the experiment with DMS 114 small cell lung; > 100 µM in the experiment with DLD-1 colon; > 45.2 µM with DMS 273 small cell lung; 0.599 µM in the experiment with MDA-N. In addition, the results for the TGI in the experiment on XF 498 CNS, with HOP-18 NSCLC and in the experiment with KM20L2 colon were 69 µM, > 100 µM and 7.16 µM, respectively.
On to `BrC1=CC=C2NC=CC3=CC=NC1C32` (centres undefined), for which the TGI was 30.1 µM in the experiment on M19-MEL melanoma; > 100 µM in the experiment with RXF-631 renal; 58.1 µM with DMS 114 small cell lung; > 65.2 µM in the experiment with DLD-1 colon; > 92.5 µM in the experiment with DMS 273 small cell lung; 48 µM in the experiment with XF 498 CNS. Also, the TGI was 66.8 µM in the experiment with HOP-18 NSCLC and > 100 µM in the experiment on KM20L2 colon.
Take `O=c1cc2ccccc2nn1Cc1cccc(Cl)c1`: the TGI in the experiment on M19-MEL melanoma was > 100 µM; in the experiment on RXF-631 renal, > 100 µM; in the experiment with DMS 114 small cell lung, > 100 µM; in the experiment on DLD-1 colon, > 100 µM; in the experiment on DMS 273 small cell lung it was > 100 µM; with XF 498 CNS it was 94.5 µM. Besides, the TGI in the experiment with HOP-18 NSCLC and in the experiment on KM20L2 colon was > 100 µM throughout.
